Source: ChEMBL document CHEMBL1649078, “Novel antiviral C5-substituted pyrimidine acyclic nucleoside phosphonates selected as human thymidylate kinase substrates” (J Med Chem, 2011)

These compounds were tested on Vaccinia virus (assay: Antiviral activity against Vaccinia virus infected in human HEL cells assessed as reduction of virus-induced cytopathogenicity after 7 days). Conditions: Orthopoxvirus vaccinia, 168 h.
Format: functional, organism-based

Compared with `Cc1cn(C/C=C/CP(=O)(OCOC(=O)C(C)(C)C)OCOC(=O)C(C)(C)C)c(=O)[nH]c1=O`, `Cc1cn(C/C=C\CP(=O)(OCOC(=O)C(C)(C)C)OCOC(=O)C(C)(C)C)c(=O)[nH]c1=O` is higher in EC50: 30 µM for the first, over 40 µM for the second.

First: CC(C)(C)C(=O)OCOP(=O)(C/C=C/Cn1cc(Br)c(=O)[nH]c1=O)OCOC(=O)C(C)(C)C
Second: CC(C)(C)C(=O)OCOP(=O)(C/C=C\Cn1cc(Br)c(=O)[nH]c1=O)OCOC(=O)C(C)(C)C
The EC50 of the first is 2.7-fold lower: 33 µM for the first, 90 µM for the second. The first is the more potent here.

Compared with `O=c1[nH]c(=O)n([C@H]2C[C@H](O)[C@@H](CO)O2)cc1/C=C/Br` [BRIVUDINE], `Nc1ccn(C[C@@H](CO)OCP(=O)(O)O)c(=O)n1` [CIDOFOVIR] is 4-fold higher in EC50: 1.5 µM for the first, 6 µM for the second. The first is the more potent here.

`Nc1nc2c(ncn2COC(CO)CO)c(=O)[nH]1` [GANCICLOVIR] was tested, and the EC50 was over 100 µM.
